Test results as given in article PMC7584476, “Safety and efficacy of BAY1436032 in IDH1-mutant AML: phase I study results” (Leukemia, 2020).
“Also recorded” adds a separate entry of the source.

System: subjects with mIDH1 advanced AML
Experiment: Phase I study: safety and tolerability (TEAE, DLT, MTD, ECG)
Type: in vivo
Method: This study was an open-label, nonrandomized, multicenter phase I trial. Subjects were screened at 13 hospital sites in 2 countries (USA and Germany). The study was to consist of dose-escalation followed by dose-expansion. The MTD identified in dose-escalation was to be used in the dose-expansion. If MTD was not reached in dose-escalation, a dose for the expansion would be selected based on available PK, pharmacodynamic, safety, and efficacy data. BAY1436032 was administered twice-daily (BID) in continuous 28-day cycles. In dose-escalation, up to 9 evaluable subjects could be enrolled per cohort, with a minimum of 3 dose-limiting toxicity (DLT)-free evaluable subjects required prior to escalating to the next highest dose. Bayesian dose-DLT modeling was performed to help guide dosing decisions.
DLTs were differentially defined for nonhematopoietic versus hematopoietic toxicities. Nonhematopoietic toxicities of ≥grade 3 occurring during the first cycle of treatment were to be considered DLTs with the following exceptions: (1) Alopecia and nausea controlled by medical management; (2) Tumor lysis syndrome if successfully managed clinically and resolved within 7 days without any end-organ damage; (3) Differentiation syndrome (DS) if successfully managed clinically and resolved within 7 days without any end-organ damage; (4) Asymptomatic ≥grade 3 electrolyte abnormalities not considered clinically significant by the investigator. […] For certain toxicities such as laboratory assessments without a clear clinical correlate, a discussion between the investigator and the sponsor determined whether the adverse event (AE) should be assessed as a DLT.
DLTs identified during the first cycle of treatment were used to guide dose-escalation decisions and to determine the MTD, and if safety issues appeared in subsequent cycles they were also to be considered. Hydroxyurea was permitted during the first cycle if white blood cell (WBC) exceeded 20 × 10^9/L and was also permitted for treatment of DS.
Safety and tolerability were evaluated by analysis of adverse events, physical examinations, vital signs, ECOG performance status, and various laboratory assessments. For safety monitoring, subjects were scheduled for clinic visits every week for the initial three cycles of treatment, after which time visits could be reduced to every-other-week with investigator and sponsor agreement. Cardiac function was assessed with triplicate 12-lead electrocardiograms (ECG) at screening, C1-D1, C1-D2, C1-D15, D1 of every subsequent cycle, and at treatment end. […] AEs are presented by the Medical Dictionary for Regulatory Activities (MedDRA) v21.1.

C[C@H]1C[C@@H](n2c(Nc3ccc(OC(F)(F)F)cc3)nc3cc(CCC(=O)O)ccc32)CC(C)(C)C1 [BAY1436032]
TEAE Sepsis Grade 5 (1500 mg BID, n=9): 1
TEAE Sinus tachycardia Grade 1 (1500 mg BID, n=9): 1
TEAE Thrombocytopenia Grade 4 (1500 mg BID, n=9): 2
TEAE Vomiting Grade 1 (1500 mg BID, n=9): 3
TEAE Weight decreased Grade 1 (1500 mg BID, n=9): 0
TEAE Weight decreased Grade 2 (1500 mg BID, n=9): 0
TEAE Weight decreased Grade 3 (1500 mg BID, n=9): 1
Deaths during treatment or within 30 days of discontinuation (27 treated): Six of 27
Related TEAE DS grade 3 (27 treated): single subject
Related TEAE Fatigue Grade 3 (27 treated): single subject
Related TEAE amylase increase grade 3 (27 treated): single subject
Related TEAE anemia grade 4 (27 treated): single subject
Related TEAE decreased WBC count grade 3 (27 treated): single subject
Related TEAE decreased neutrophil count grade 4 (27 treated): single subject
Related TEAE decreased platelet count grade 4 (27 treated): single subject
Related TEAE febrile neutropenia grade 3 (27 treated): single subject
Related TEAE hyponatremia grade 3 (27 treated): single subject
Related TEAE ileus grade 4 (27 treated): single subject
Related TEAE lung infiltration grade 3 (27 treated): single subject
Related TEAE peripheral edema grade 3 (27 treated): single subject
Related TEAE pneumonitis grade 3 (27 treated): single subject
Related TEAE sepsis grade 4 (27 treated): single subject
Subjects with DS or symptoms associated with DS (27 treated): 19%
Subjects with at least 1 TEAE of any grade related to BAY1436032 (27 treated): Seventeen of 27
Subjects with at least 1 TEAE of ≥grade 3 related to BAY1436032 (27 treated): Seven of 27
Subjects with at least 1 TEAE ≥ grade 3 irrespective of relationship (27 treated): Twenty-four
Maximum tolerated dose (300 to 1500 mg BID): not identified; also recorded: No MTD was identified
Related TEAE Decreased appetite Grade 1 (Total, n=27): 1 (4) n (%)
Related TEAE Decreased appetite Grade 2 (Total, n=27): 1 (4) n (%)
Related TEAE Diarrhea Grade 2 (Total, n=27): 2 (7) n (%)
Related TEAE Differentiation syndrome Grade 2 (Total, n=27): 1 (4) n (%)
Related TEAE Differentiation syndrome Grade 3 (Total, n=27): 1 (4) n (%)
Related TEAE Dyspnea Grade 1 (Total, n=27): 2 (7) n (%)
Related TEAE Dyspnea Grade 2 (Total, n=27): 1 (4) n (%)
Related TEAE Fatigue Grade 1 (Total, n=27): 1 (4) n (%)
Related TEAE Fatigue Grade 2 (Total, n=27): 2 (7) n (%)
Related TEAE Fatigue Grade 3 (Total, n=27): 1 (4) n (%)
Related TEAE Hypomagnesaemia Grade 1 (Total, n=27): 2 (7) n (%)
Related TEAE Nausea Grade 1 (Total, n=27): 4 (15) n (%)
Related TEAE Nausea Grade 2 (Total, n=27): 1 (4) n (%)
Related TEAE Sinus tachycardia Grade 1 (Total, n=27): 2 (7) n (%)
Related TEAE Vomiting Grade 1 (Total, n=27): 4 (15) n (%)
TEAE Abdominal pain upper Grade 1 (Total, n=27): 2 (7) n (%)
TEAE Abdominal pain upper Grade 2 (Total, n=27): 1 (4) n (%)
TEAE Acute kidney injury Grade 1 (Total, n=27): 1 (4) n (%)
TEAE Acute kidney injury Grade 2 (Total, n=27): 1 (4) n (%)
TEAE Acute kidney injury Grade 3 (Total, n=27): 1 (4) n (%)
TEAE Anaemia Grade 3 (Total, n=27): 4 (15) n (%)
TEAE Anaemia Grade 4 (Total, n=27): 1 (4) n (%)
TEAE Anxiety Grade 1 (Total, n=27): 2 (7) n (%)
TEAE Anxiety Grade 2 (Total, n=27): 1 (4) n (%)
TEAE Arthralgia Grade 1 (Total, n=27): 1 (4) n (%)
TEAE Arthralgia Grade 2 (Total, n=27): 2 (7) n (%)
TEAE Constipation Grade 1 (Total, n=27): 4 (15) n (%)
TEAE Constipation Grade 2 (Total, n=27): 1 (4) n (%)
TEAE Contusion Grade 1 (Total, n=27): 3 (11) n (%)
TEAE Contusion Grade 2 (Total, n=27): 1 (4) n (%)
TEAE Cough Grade 1 (Total, n=27): 3 (11) n (%)
TEAE Cough Grade 2 (Total, n=27): 2 (7) n (%)
TEAE Decreased appetite Grade 1 (Total, n=27): 5 (19) n (%)
TEAE Decreased appetite Grade 2 (Total, n=27): 3 (11) n (%)
TEAE Decreased appetite Grade 3 (Total, n=27): 1 (4) n (%)
TEAE Diarrhea Grade 1 (Total, n=27): 7 (26) n (%)
TEAE Diarrhea Grade 2 (Total, n=27): 3 (11) n (%)
TEAE Dry skin Grade 1 (Total, n=27): 5 (19) n (%)
TEAE Dyspnoea Grade 1 (Total, n=27): 4 (15) n (%)
TEAE Dyspnoea Grade 2 (Total, n=27): 2 (7) n (%)
TEAE Dyspnoea Grade 3 (Total, n=27): 3 (11) n (%)
TEAE Epistaxis Grade 1 (Total, n=27): 3 (11) n (%)
TEAE Epistaxis Grade 2 (Total, n=27): 2 (7) n (%)
TEAE Epistaxis Grade 3 (Total, n=27): 1 (4) n (%)
TEAE Fall Grade 1 (Total, n=27): 4 (15) n (%)
TEAE Fatigue Grade 1 (Total, n=27): 4 (15) n (%)
TEAE Fatigue Grade 2 (Total, n=27): 4 (15) n (%)
TEAE Fatigue Grade 3 (Total, n=27): 3 (11) n (%)
TEAE Febrile neutropenia Grade 3 (Total, n=27): 7 (26) n (%)
TEAE General physical health deterioration Grade 3 (Total, n=27): 2 (7) n (%)
TEAE General physical health deterioration Grade 5 (Total, n=27): 1 (4) n (%)
TEAE Gingivitis Grade 1 (Total, n=27): 3 (11) n (%)
TEAE Haematuria Grade 1 (Total, n=27): 2 (7) n (%)
TEAE Haematuria Grade 2 (Total, n=27): 1 (4) n (%)
TEAE Haematuria Grade 3 (Total, n=27): 1 (4) n (%)
TEAE Headache Grade 1 (Total, n=27): 1 (4) n (%)
TEAE Headache Grade 2 (Total, n=27): 2 (7) n (%)
TEAE Headache Grade 3 (Total, n=27): 1 (4) n (%)
TEAE Hyperkalaemia Grade 1 (Total, n=27): 2 (7) n (%)
TEAE Hyperkalaemia Grade 4 (Total, n=27): 1 (4) n (%)
TEAE Hypertension Grade 2 (Total, n=27): 2 (7) n (%)
TEAE Hypertension Grade 3 (Total, n=27): 1 (4) n (%)
TEAE Hyperuricaemia Grade 1 (Total, n=27): 4 (15) n (%)
TEAE Hyperuricaemia Grade 3 (Total, n=27): 1 (4) n (%)
TEAE Hypokalaemia Grade 1 (Total, n=27): 3 (11) n (%)
TEAE Hypokalaemia Grade 2 (Total, n=27): 1 (4) n (%)
TEAE Hypokalaemia Grade 3 (Total, n=27): 2 (7) n (%)
TEAE Hyponatraemia Grade 1 (Total, n=27): 2 (7) n (%)
TEAE Hyponatraemia Grade 3 (Total, n=27): 1 (4) n (%)
TEAE Hypophosphataemia Grade 1 (Total, n=27): 1 (4) n (%)
TEAE Hypophosphataemia Grade 2 (Total, n=27): 2 (7) n (%)
TEAE Leukocytosis Grade 2 (Total, n=27): 2 (7) n (%)
TEAE Leukocytosis Grade 3 (Total, n=27): 2 (7) n (%)
TEAE Lung infection Grade 3 (Total, n=27): 3 (11) n (%)
TEAE Lung infection Grade 5 (Total, n=27): 1 (4) n (%)
TEAE Nausea Grade 1 (Total, n=27): 5 (19) n (%)
TEAE Nausea Grade 2 (Total, n=27): 2 (7) n (%)
TEAE Nausea Grade 3 (Total, n=27): 2 (7) n (%)
TEAE Oedema peripheral Grade 1 (Total, n=27): 6 (22) n (%)
TEAE Oedema peripheral Grade 3 (Total, n=27): 2 (7) n (%)
TEAE Pain in extremity Grade 1 (Total, n=27): 2 (7) n (%)
TEAE Pain in extremity Grade 2 (Total, n=27): 1 (4) n (%)
TEAE Pneumonia Grade 1 (Total, n=27): 1 (4) n (%)
TEAE Pneumonia Grade 2 (Total, n=27): 2 (7) n (%)
TEAE Pneumonia Grade 3 (Total, n=27): 3 (11) n (%)
TEAE Pneumonia fungal Grade 2 (Total, n=27): 1 (4) n (%)
TEAE Pneumonia fungal Grade 3 (Total, n=27): 1 (4) n (%)
TEAE Pneumonia fungal Grade 4 (Total, n=27): 1 (4) n (%)
TEAE Productive cough Grade 1 (Total, n=27): 2 (7) n (%)
TEAE Productive cough Grade 2 (Total, n=27): 1 (4) n (%)
TEAE Pyrexia Grade 1 (Total, n=27): 4 (15) n (%)
TEAE Pyrexia Grade 2 (Total, n=27): 1 (4) n (%)
TEAE Pyrexia Grade 3 (Total, n=27): 3 (11) n (%)
TEAE Rash Grade 1 (Total, n=27): 1 (4) n (%)
TEAE Rash Grade 2 (Total, n=27): 3 (11) n (%)
TEAE Sepsis Grade 4 (Total, n=27): 3 (11) n (%)
TEAE Sepsis Grade 5 (Total, n=27): 2 (7) n (%)
TEAE Sinus tachycardia Grade 1 (Total, n=27): 3 (11) n (%)
TEAE Thrombocytopenia Grade 4 (Total, n=27): 3 (11) n (%)
TEAE Vomiting Grade 1 (Total, n=27): 7 (26) n (%)
TEAE Weight decreased Grade 1 (Total, n=27): 3 (11) n (%)
TEAE Weight decreased Grade 2 (Total, n=27): 3 (11) n (%)
TEAE Weight decreased Grade 3 (Total, n=27): 1 (4) n (%)
Subjects with DS or symptoms associated with DS (count of 27 treated): Five of 27
Dose-limiting toxicities (grade 4 ileus, subject 21, cohort 4): single DLT
Clinically significant ECG changes such as QTc prolongation related to treatment (in vivo): no clinically significant ECG
Deaths attributed to study drug (in vivo): none
Episodes of ≥grade 3 QT prolongation (in vivo): no episodes
